We go through nine molecules from ChEMBL document CHEMBL3046469, “Fungicidal Activities of 2-(Substituted Phenoxymethyl)phenyl-2-methoxyiminoacaetamide Derivatives” (1998).

Structures are written as SMILES. A value given as a limit tells only on which side of the number the result lay.

One test has as its system Blumeria graminis f. sp. tritici. Kind of test: Fungicidal activity against Blumeria graminis f. sp. tritici assessed as wheat powdery mildew disease control at 7.8 ppm foliar application 48 24 hr before inoculation by preventive manner. It counts as functional.
Turning to `CNC(=O)/C(=N/OC)c1ccccc1COc1cccc(-c2ccccc2)c1`, the Activity stood at 90%.

In the next test the test system is Pyricularia oryzae. Kind of test: Fungicidal activity against Magnaporthe oryzae assessed as rice blast disease control at 125 ppm foliar application for 24 hr before inoculation at 27 +/- 2 degC measured after 5 days by preventive manner. It counts as functional.
As for `CO/N=C(/C(=O)NOC)c1ccccc1COc1cc(C)ccc1C`, the Activity is given as 90%.
The same measure, in the same setting: for `CNC(=O)/C(=N\OC)c1ccccc1COc1cccc(OC(C)C)c1` the value was 90%.
For `CNC(=O)/C(=N\OC)c1ccccc1COc1ccc(Cl)cc1`, the Activity is listed as <90%.
Same read-out and setting: for `CNC(=O)/C(=N/OC)c1ccccc1COc1ccc(C)cc1C` the value was 90%; for `CNC(=O)/C(=N\OC)c1ccccc1COc1ccccc1`, <90%; for `CNC(=O)/C(=N\OC)c1ccccc1COc1ccc(-c2ccccc2)cc1`, <90%.
Take `CO/N=C(/C(=O)NN)c1ccccc1COc1cc(C)ccc1C`: the Activity turned out to be 90%.

In the next test the test system is Pyricularia oryzae. Kind of test: Fungicidal activity against Magnaporthe oryzae assessed as rice blast disease control at 7.8 ppm foliar application for 24 hr after inoculation at 27 +/- 2 degC measured after 5 days by curative manner. The test is classed as functional.
`CO/N=C(/C(N)=O)c1ccccc1COc1cc(C)ccc1C`: the Activity came out at 90%.

A further test deals with Pseudoperonospora cubensis. Kind of test: Fungicidal activity against Pseudoperonospora cubensis assessed as cucumber downy mildew disease control at 7.8 ppm foliar application 24 hr before inoculation onto the abaxial(untreated) surface of leaf by preventive manner. The test is classed as functional.
In the case of `CNC(=O)/C(=N/OC)c1ccccc1COc1cccc(-c2ccccc2)c1`, the Activity was 90%.

In another test the test system is Podosphaera fuliginea. Kind of test: Fungicidal activity against Podosphaera fuliginea assessed as cucumber powdery mildew control at 125 ppm foliar application 24 hr after inoculation at 23 +/- 2 degC by curative manner. It counts as functional.
`CNC(=O)/C(=N\OC)c1ccccc1COc1cccc(OC(C)C)c1`: the Activity worked out at 90%.
The same measure, in the same setting: the same measure for `CNC(=O)/C(=N\OC)c1ccccc1COc1ccc(Cl)cc1`: <90%; for `CNC(=O)/C(=N\OC)c1ccccc1COc1ccccc1`: <90%; for `CNC(=O)/C(=N\OC)c1ccccc1COc1ccc(-c2ccccc2)cc1`: <90%.
Same read-out and setting: the same measure for `CO/N=C(/C(=O)NN)c1ccccc1COc1cc(C)ccc1C`: <90%.

Another test concerns Botrytis cinerea. Kind of test: Fungicidal activity against Botryotinia fuckeliana assessed as cucumber gray mold disease control at 31.3 ppm foliar application […] at 22 +/- 2 degC by preventive manner. The test is classed as functional.
For `CO/N=C(/C(N)=O)c1ccccc1COc1cc(C)ccc1C`, the Activity worked out at 90%.

Another test concerns Pyricularia oryzae. Kind of test: Fungicidal activity against Magnaporthe oryzae assessed as rice blast disease control at 31.3 ppm foliar application for 24 hr before inoculation at 27 +/- 2 degC measured after 5 days by preventive manner. It counts as functional.
Turning to `CO/N=C(/C(N)=O)c1ccccc1COc1cc(C)ccc1C`, the Activity is 90%.

For the next test, the system named is Podosphaera fuliginea. Kind of test: Fungicidal activity against Podosphaera fuliginea assessed as cucumber powdery mildew control at 2 ppm foliar application 24 hr before inoculation at 23 +/- 2 degC by preventive manner. The test is classed as functional.
With `CO/N=C(/C(N)=O)c1ccccc1COc1cc(C)ccc1C`, the Activity amounted to 90%.
Still for that read-out and setting: the same measure for `CNC(=O)/C(=N/OC)c1ccccc1COc1cccc(-c2ccccc2)c1`: 90%.

The test system of another test is Pseudoperonospora cubensis. Kind of test: Fungicidal activity against Pseudoperonospora cubensis assessed as cucumber downy mildew disease control at 125 ppm foliar application 24 hr before inoculation onto the abaxial(untreated) surface of leaf by preventive manner. It counts as functional.
Turning to `CNC(=O)/C(=N/OC)c1ccccc1COc1ccc(C)cc1C`, the Activity turned out to be 90%.

The next test has as its system Podosphaera fuliginea. Kind of test: Fungicidal activity against Podosphaera fuliginea assessed as cucumber powdery mildew control at 125 ppm foliar application 24 hr before inoculation at 23 +/- 2 degC by preventive manner. The test is classed as functional.
For `CO/N=C(/C(=O)NOC)c1ccccc1COc1cc(C)ccc1C`, the Activity was <90%.
The same measure, in the same setting: the same measure for `CNC(=O)/C(=N\OC)c1ccccc1COc1ccc(Cl)cc1`: 90%.
Same read-out and setting: the same measure for `CNC(=O)/C(=N\OC)c1ccccc1COc1ccccc1`: 90%.
Consider `CO/N=C(/C(=O)NN)c1ccccc1COc1cc(C)ccc1C`, for which the Activity is listed as 90%.

For the next test, the system named is Blumeria graminis f. sp. tritici. Kind of test: Fungicidal activity against Blumeria graminis f. sp. tritici assessed as wheat powdery mildew disease control at 2 ppm foliar application for 48 hr before inoculation by preventive manner. It counts as functional.
Take `CNC(=O)/C(=N/OC)c1ccccc1COc1ccc(C)cc1C`: the Activity is on record as 90%.

The next test has the same test system. Kind of test: Fungicidal activity against Blumeria graminis f. sp. tritici assessed as wheat powdery mildew disease control at 125 ppm foliar application for 48 hr before inoculation by preventive manner. It counts as functional.
Turning to `CNC(=O)/C(=N\OC)c1ccccc1COc1cccc(OC(C)C)c1`, the Activity is <90%.
As to `CNC(=O)/C(=N\OC)c1ccccc1COc1ccc(Cl)cc1`, the Activity is recorded as 90%.
The same measure, in the same setting: the same measure for `CNC(=O)/C(=N\OC)c1ccccc1COc1ccccc1`: 90%; for `CNC(=O)/C(=N\OC)c1ccccc1COc1ccc(-c2ccccc2)cc1`: <90%.

The subject of another test is Thanatephorus cucumeris. Kind of test: Fungicidal activity against Thanatephorus cucumeris assessed as rice sheath blight disease control at 7.8 ppm foliar application for 24 hr before inoculation at 26 +/- 2 degC measured after 5 days by preventive manner. It counts as functional.
In the case of `CNC(=O)/C(=N/OC)c1ccccc1COc1ccc(C)cc1C`, the Activity was 90%.

The test system of a further test is Podosphaera fuliginea. Kind of test: Fungicidal activity against Podosphaera fuliginea assessed as cucumber powdery mildew control at 7.8 ppm foliar application 24 hr after inoculation at 23 +/- 2 degC by curative manner. The test is classed as functional.
Consider `CO/N=C(/C(=O)NOC)c1ccccc1COc1cc(C)ccc1C`, for which the Activity is 90%.
On the same count and under the same terms, for `CO/N=C(/C(N)=O)c1ccccc1COc1cc(C)ccc1C` the value was 90%.

Another test has as its system Podosphaera fuliginea. Kind of test: Fungicidal activity against Podosphaera fuliginea assessed as cucumber powdery mildew control at 31.3 ppm foliar application 24 hr before inoculation at 23 +/- 2 degC by preventive manner. The test is classed as functional.
Turning to `CNC(=O)/C(=N\OC)c1ccccc1COc1cccc(OC(C)C)c1`, the Activity was 90%.
On the same count and under the same terms, for `CNC(=O)/C(=N\OC)c1ccccc1COc1ccc(-c2ccccc2)cc1` the value was 90%.

Another test deals with Podosphaera fuliginea. Kind of test: Fungicidal activity against Podosphaera fuliginea assessed as cucumber powdery mildew control at 7.8 ppm foliar application 24 hr before inoculation at 23 +/- 2 degC by preventive manner. It counts as functional.
For the molecule `CNC(=O)/C(=N/OC)c1ccccc1COc1ccc(C)cc1C`, the Activity is listed as 90%.

For a further test, the system named is Pyricularia oryzae. Kind of test: Fungicidal activity against Magnaporthe oryzae assessed as rice blast disease control at 125 ppm foliar application for 24 hr after inoculation at 27 +/- 2 degC measured after 5 days by curative manner. The test is classed as functional.
As to `CO/N=C(/C(=O)NOC)c1ccccc1COc1cc(C)ccc1C`, the Activity is on record as <90%.
`CNC(=O)/C(=N\OC)c1ccccc1COc1cccc(OC(C)C)c1`: the Activity is <90%.
As to `CNC(=O)/C(=N\OC)c1ccccc1COc1ccc(Cl)cc1`, the Activity is reported as <90%.
Same read-out and setting: for `CNC(=O)/C(=N\OC)c1ccccc1COc1ccccc1` the value was <90%; for `CNC(=O)/C(=N\OC)c1ccccc1COc1ccc(-c2ccccc2)cc1`, <90%.
For the molecule `CO/N=C(/C(=O)NN)c1ccccc1COc1cc(C)ccc1C`, the Activity is <90%.

Another test has as its system Blumeria graminis f. sp. tritici. Kind of test: Fungicidal activity against Blumeria graminis f. sp. tritici assessed as wheat powdery mildew disease control at 125 ppm foliar application for 48 hr after inoculation by curative manner. The test is classed as functional.
For the molecule `CNC(=O)/C(=N\OC)c1ccccc1COc1cccc(OC(C)C)c1`, the Activity stood at 90%.
Same read-out and setting: for `CNC(=O)/C(=N\OC)c1ccccc1COc1ccc(Cl)cc1` the value was <90%; for `CNC(=O)/C(=N\OC)c1ccccc1COc1ccccc1`, <90%; for `CNC(=O)/C(=N\OC)c1ccccc1COc1ccc(-c2ccccc2)cc1`, 90%.

The subject of another test is Botrytis cinerea. Kind of test: Fungicidal activity against Botryotinia fuckeliana assessed as cucumber gray mold disease control at 7.8 ppm foliar application […] at 22 +/- 2 degC by curative manner. It counts as functional.
As for `CO/N=C(/C(N)=O)c1ccccc1COc1cc(C)ccc1C`, the Activity was 90%.

Another test deals with Thanatephorus cucumeris. Kind of test: Fungicidal activity against Thanatephorus cucumeris assessed as rice sheath blight disease control at 31.3 ppm foliar application for 24 hr before inoculation at 26 +/- 2 degC measured after 5 days by preventive manner. The test is classed as functional.
With `CNC(=O)/C(=N/OC)c1ccccc1COc1cccc(-c2ccccc2)c1`, the Activity was 90%.

The test system of the next test is Botrytis cinerea. Kind of test: Fungicidal activity against Botryotinia fuckeliana assessed as cucumber gray mold disease control at 2 ppm foliar application […] at 22 +/- 2 degC by preventive manner. The test is classed as functional.
With `CNC(=O)/C(=N/OC)c1ccccc1COc1ccc(C)cc1C`, the Activity was found to be 90%.
Same read-out and setting: the same measure for `CNC(=O)/C(=N/OC)c1ccccc1COc1cccc(-c2ccccc2)c1`: 90%.

The next test relates to Pseudoperonospora cubensis. Kind of test: Fungicidal activity against Pseudoperonospora cubensis assessed as cucumber downy mildew disease control at 2 ppm foliar application 24 hr before inoculation onto the adaxial(treated) surface of leaf by preventive manner. It counts as functional.
For `CNC(=O)/C(=N/OC)c1ccccc1COc1ccc(C)cc1C`, the Activity is recorded as 90%.
As for `CNC(=O)/C(=N/OC)c1ccccc1COc1cccc(-c2ccccc2)c1`, the Activity is given as 90%.

The next test deals with Pyricularia oryzae. Kind of test: Fungicidal activity against Magnaporthe oryzae assessed as rice blast disease control at 2 ppm foliar application for 24 hr before inoculation at 27 +/- 2 degC measured after 5 days by preventive manner. It counts as functional.
For the molecule `CNC(=O)/C(=N/OC)c1ccccc1COc1cccc(-c2ccccc2)c1`, the Activity was 90%.

A further test deals with Botrytis cinerea. Kind of test: Fungicidal activity against Botryotinia fuckeliana assessed as cucumber gray mold disease control at 125 ppm foliar application […] at 22 +/- 2 degC by preventive manner. The test is classed as functional.
For the molecule `CO/N=C(/C(=O)NOC)c1ccccc1COc1cc(C)ccc1C`, the Activity is 90%.
On the same count and under the same terms, the same measure for `CNC(=O)/C(=N\OC)c1ccccc1COc1cccc(OC(C)C)c1`: 90%; for `CNC(=O)/C(=N\OC)c1ccccc1COc1ccc(Cl)cc1`: <90%; for `CNC(=O)/C(=N\OC)c1ccccc1COc1ccccc1`: <90%.
Consider `CNC(=O)/C(=N\OC)c1ccccc1COc1ccc(-c2ccccc2)cc1`, for which the Activity is listed as <90%.
`CO/N=C(/C(=O)NN)c1ccccc1COc1cc(C)ccc1C`: the Activity is recorded as <90%.

Another test concerns Botrytis cinerea. Kind of test: Fungicidal activity against Botryotinia fuckeliana assessed as cucumber gray mold disease control at 125 ppm foliar application […] at 22 +/- 2 degC by curative manner. It counts as functional.
Take `CO/N=C(/C(=O)NOC)c1ccccc1COc1cc(C)ccc1C`: the Activity is <90%.
As to `CNC(=O)/C(=N\OC)c1ccccc1COc1cccc(OC(C)C)c1`, the Activity is recorded as <90%.
Same read-out and setting: the same measure for `CNC(=O)/C(=N\OC)c1ccccc1COc1ccc(Cl)cc1`: <90%; for `CNC(=O)/C(=N\OC)c1ccccc1COc1ccccc1`: <90%.
Regarding `CNC(=O)/C(=N\OC)c1ccccc1COc1ccc(-c2ccccc2)cc1`, the Activity is given as <90%.
